From PMC9959553, “Promising Antifungal Molecules against Mucormycosis Agents Identified from Pandemic Response Box®: In Vitro and In Silico Analyses” (Journal of Fungi, 2023)
Several values for one entry are separate records, joined by “and”; a condition that tells them apart may be missing. Identical values can stand only once.

Assays:
HUVEC = tested on: HUVEC; design: method as in PMID 30381356; conditions: cited from earlier work
[1] = tested on: R. oryzae, R. microsporus and R. stolonifer biofilm formation; test: Biofilm formation assay, stated over the three species; assay type: cell-based, Rhizopus species
Protocol: Biofilm formation assay was performed according to Rollin-Pinheiro and colleagues. Biofilms were grown on the surface of sterile polystyrene microplates (96-well). Briefly, serial dilutions of selected compounds were prepared in RPMI 1640 medium (8–¼× MIC) and deposited in 100 µL aliquots in microplate wells. Subsequently, 100 µL containing 10^5 Rhizopus conidia in RPMI 1640 medium was added to each well and incubated for 48 h at 37 °C.
For the preformed biofilm assay, cells were cultured as described above in the absence of the compounds. […] An additional incubation of 24 h at 37 °C was performed to evaluate the anti-biofilm activity. Evaluation of both biofilm formation and preformed biofilms was performed using three parameters as previously described. Crystal violet, safranin and XTT assays were used to analyze the overall biomass, extracellular matrix and metabolic activity, respectively.

In the case of `CCCCC(CC)CNC(=N)NC(=N)NCCCCCCNC(=N)NC(=N)NCC(CC)CCCC` (centres unmarked) [MMV396785, Alexidine, reference compound], the “concentration that damaged cells” value (HUVEC) is given as 14.7 µg/mL and 28.89 µM and the “inhibition of biofilm formation (total biomass, matrix and viability)” value [1] is given as about 100%.
